Laboratory results reported in PubChem BioAssay AID212 (DTP/NCI, 2004).
Where “and” joins values, the source holds several entries; their conditions need not be identical. Equal values may be shown once. Records with an inconclusive call do not appear.

Tested on: BDF1 mice, colon carcinoma 38 sc, T/C %
Test: NCI In Vivo Anticancer Drug Screen. Data for tumor model Colon Carcinoma 38 (subcutaneous) in B6D2F1 (BDF1) mice
Conditions: endpoint: median tumor weight (est.), higher = larger tumour
Method in brief: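 Transplantable tumor in mice; compound-treated vs vehicle-dosed controls. Measured survival or tumor size; value = T ÷ C.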

[1] = dose: 50.0 mg/kg/injection, schedule: Q07DX002 (ip), vehicle: Klucel (hydroxypropylcellulose) (HPC)
[2] = dose: 100.0 mg/kg/injection, schedule: Q07DX002 (ip), vehicle: Klucel (hydroxypropylcellulose) (HPC)
[3] = dose: 50.0 mg/kg/injection, schedule: Q07DX002 (ip), vehicle: saline
[4] = dose: 3.12 mg/kg/injection, schedule: Q07DX002 (ip), vehicle: saline with Tween-80
[5] = dose: 25.0 mg/kg/injection, schedule: Q07DX002 (ip), vehicle: saline with Tween-80

Compound: COc1cccc2c1C(=O)c1c(O)c3c(c(O)c1C2=O)C[C@@](O)(C(C)=O)C[C@@H]3OC1CC(N)C(O)C(C)O1 (stereo partly specified)
- T/C (dose: 0.5 mg/kg/injection, schedule: Q07DX002 (ip), vehicle: water): 75 % of control
- T/C (dose: 0.5 mg/kg/injection, schedule: Q07DX003 (ip), vehicle: saline): 62 % of control and 76 % of control
- T/C (dose: 1.0 mg/kg/injection, schedule: Q07DX002 (ip), vehicle: water): 230 % of control
- T/C (dose: 1.0 mg/kg/injection, schedule: Q07DX003 (ip), vehicle: saline): 55 % of control and 76 % of control
- T/C (dose: 2.0 mg/kg/injection, schedule: Q07DX002 (ip), vehicle: water): 117 % of control
- T/C (dose: 2.0 mg/kg/injection, schedule: Q07DX003 (ip), vehicle: saline): 78 % of control and 91 % of control

Compound: COc1ccc(Cl)[n+]([O-])n1
- T/C (dose: 6.25 mg/kg/injection, schedule: Q07DX002 (ip), vehicle: Klucel (hydroxypropylcellulose) (HPC)): 83 % of control
- T/C (dose: 12.5 mg/kg/injection, schedule: Q07DX002 (ip), vehicle: Klucel (hydroxypropylcellulose) (HPC)): 87 % of control
- T/C (dose: 25.0 mg/kg/injection, schedule: Q07DX002 (ip), vehicle: Klucel (hydroxypropylcellulose) (HPC)): 89 % of control
- T/C [1]: 81 % of control
- T/C [2]: 90 % of control

Compound: Cc1ccccc1CN1C2=NCCN2C(=O)C2=C1CCN(S(=O)(=O)c1ccc(Cl)c(S(N)(=O)=O)c1)C2
- T/C [3]: 97 % of control
- T/C (dose: 100.0 mg/kg/injection, schedule: Q07DX002 (ip), vehicle: saline): 86 % of control
- T/C (dose: 200.0 mg/kg/injection, schedule: Q07DX002 (ip), vehicle: saline): 91 % of control
- T/C (dose: 400.0 mg/kg/injection, schedule: Q07DX002 (ip), vehicle: saline): 96 % of control
- T/C (dose: 450.0 mg/kg/injection, schedule: Q07DX002 (ip), vehicle: saline): 84 % of control
- T/C (dose: 900.0 mg/kg/injection, schedule: Q07DX002 (ip), vehicle: saline): 100 % of control
- T/C (dose: 1800.0 mg/kg/injection, schedule: Q07DX002 (ip), vehicle: saline): 110 % of control

Compound: CCN(CC)CC[n+]1ccc2c(C)c3[nH]c4ccc(O)cc4c3c(C)c2c1
- T/C (dose: 3.12 mg/kg/injection, schedule: Q07DX002 (ip), vehicle: saline): 38 % of control
- T/C (dose: 3.12 mg/kg/injection, schedule: Q07DX002 (ip), vehicle: suspension in saline): 82 % of control
- T/C (dose: 6.25 mg/kg/injection, schedule: Q07DX002 (ip), vehicle: suspension in saline): 103 % of control
- T/C (dose: 12.5 mg/kg/injection, schedule: Q07DX002 (ip), vehicle: suspension in saline): 98 % of control
- T/C (dose: 25.0 mg/kg/injection, schedule: Q07DX002 (ip), vehicle: saline): 15 % of control and 29 % of control
- T/C (dose: 25.0 mg/kg/injection, schedule: Q07DX002 (ip), vehicle: suspension in saline): 57 % of control
- T/C [3]: 5 % of control
- T/C (dose: 50.0 mg/kg/injection, schedule: Q07DX002 (ip), vehicle: suspension in saline): 22 % of control

Compound: CCCC[C@H]1C(=O)O[C@H](C)[C@H](NC(=O)c2cccc(NC=O)c2O)C(=O)O[C@@H](C)[C@@H]1OC(=O)CC(C)C
- T/C (dose: 0.5 mg/kg/injection, schedule: Q07DX002 (ip), vehicle: Klucel (hydroxypropylcellulose) (HPC)): 177 % of control
- T/C (dose: 1.0 mg/kg/injection, schedule: Q07DX002 (ip), vehicle: Klucel (hydroxypropylcellulose) (HPC)): 224 % of control

Compound: CC12C(=O)C=CCC1=CCC1C2CCC2(O)C(=O)OC3(C)C4CC5(C)C(COC16OC23C5C6=O)C(=O)O4 (stereo unspecified)
- T/C [1]: 112 % of control
- T/C [2]: 86 % of control
- T/C (dose: 400.0 mg/kg/injection, schedule: Q07DX002 (ip), vehicle: Klucel (hydroxypropylcellulose) (HPC)): 111 % of control

Compound: CCCCCCCC(=O)[O][Hg][CH2]C1COC([CH2][Hg][O]C(=O)CCCCCCC)CO1 (stereo unspecified)
- T/C [4]: 76 % of control and 97 % of control
- T/C (dose: 6.25 mg/kg/injection, schedule: Q07DX002 (ip), vehicle: saline with Tween-80): 101 % of control
- T/C [5]: 108 % of control and 105 % of control
- T/C (dose: 100.0 mg/kg/injection, schedule: Q07DX002 (ip), vehicle: saline with Tween-80): 81 % of control

Compound: Nc1nc(-c2cccc3ccccc23)cc2ccccc12
- T/C [5]: 108 % of control
- T/C (dose: 50.0 mg/kg/injection, schedule: Q07DX002 (ip), vehicle: saline with Tween-80): 123 % of control
- T/C (dose: 200.0 mg/kg/injection, schedule: Q07DX002 (ip), vehicle: saline with Tween-80): 77 % of control
- T/C (dose: 800.0 mg/kg/injection, schedule: Q07DX002 (ip), vehicle: saline with Tween-80): 108 % of control

Compound: c1ccc2c(c1)nnn1c3cnccc3nc21
- T/C [4]: 63 % of control and 88 % of control
- T/C [5]: 82 % of control and 85 % of control

Compound: F[B-](F)(F)F
- T/C (dose: 12.5 mg/kg/injection, schedule: Q07DX002 (ip), vehicle: gum acacia): 105 % of control
- T/C (dose: 25.0 mg/kg/injection, schedule: Q07DX002 (ip), vehicle: gum acacia): 90 % of control
- T/C (dose: 50.0 mg/kg/injection, schedule: Q07DX002 (ip), vehicle: gum acacia): 95 % of control
- T/C (dose: 200.0 mg/kg/injection, schedule: Q07DX002 (ip), vehicle: gum acacia): 64 % of control
- T/C (dose: 400.0 mg/kg/injection, schedule: Q07DX002 (ip), vehicle: gum acacia): 77 % of control
